US20260209193A1, “NOVEL INHIBITORS OF DNA DAMAGE RESPONSES FOR CANCER THERAPY” (The Regents of the University of California, priority 2022, published 2026)

Columns and labels:
Assay type in all cases: cell-based
[1] = system: PC3 and SUM149PT-BRCA1mut cells; experiment: CCK8 cell killing screen of JC099 analogs
Description: Structure optimization represents a critical step towards identifying candidate compounds for preclinical and clinical development and contributes to structure-function analysis. […] Cell killing potency was detected by a CCK8 assay in prostate and breast cancer cells. […]
The cell killing potency was detected by a CCK8 assay in prostate and breast cancer cells.

PARP1 = molecular target: T1, PARP1 (Homo sapiens, UniProt P09874); experiment: PARP1 trapping, chromatin fractionation (chromatin-bound fraction)
T1 construct: endogenous in cells; host or cells: PC3
T1 sequence (P09874 whole entry, species assumed): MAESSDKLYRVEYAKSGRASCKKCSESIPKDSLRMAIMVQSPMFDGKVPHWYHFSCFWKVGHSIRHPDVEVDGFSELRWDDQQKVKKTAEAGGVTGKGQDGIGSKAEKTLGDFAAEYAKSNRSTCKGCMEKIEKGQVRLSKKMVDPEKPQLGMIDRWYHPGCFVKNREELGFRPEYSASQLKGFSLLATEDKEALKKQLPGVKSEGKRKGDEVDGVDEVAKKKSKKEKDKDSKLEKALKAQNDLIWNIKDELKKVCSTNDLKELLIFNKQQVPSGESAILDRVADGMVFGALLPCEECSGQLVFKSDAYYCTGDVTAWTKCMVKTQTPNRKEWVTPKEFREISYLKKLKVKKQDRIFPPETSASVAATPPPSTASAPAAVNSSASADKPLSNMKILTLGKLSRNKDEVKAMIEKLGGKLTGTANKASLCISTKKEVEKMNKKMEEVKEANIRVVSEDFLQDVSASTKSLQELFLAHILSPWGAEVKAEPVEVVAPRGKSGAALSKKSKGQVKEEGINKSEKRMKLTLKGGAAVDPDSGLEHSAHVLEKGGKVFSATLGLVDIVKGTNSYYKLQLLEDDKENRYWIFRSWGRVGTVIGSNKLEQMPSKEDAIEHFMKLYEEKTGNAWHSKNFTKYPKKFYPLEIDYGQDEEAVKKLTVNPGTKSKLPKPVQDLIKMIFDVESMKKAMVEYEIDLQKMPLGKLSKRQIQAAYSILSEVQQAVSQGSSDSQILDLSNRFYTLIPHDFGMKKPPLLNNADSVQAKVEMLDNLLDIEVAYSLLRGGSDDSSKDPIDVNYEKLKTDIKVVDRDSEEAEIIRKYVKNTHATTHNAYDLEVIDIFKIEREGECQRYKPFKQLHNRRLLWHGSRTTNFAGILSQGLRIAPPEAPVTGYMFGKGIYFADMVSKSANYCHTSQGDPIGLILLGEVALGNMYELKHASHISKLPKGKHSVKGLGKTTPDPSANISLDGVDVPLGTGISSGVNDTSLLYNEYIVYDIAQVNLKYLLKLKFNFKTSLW
Summary of the method: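 PARP1 trapping was measured as PARP1 in the chromatin-bound fraction across six lines: SUM149PT-BRCA1mut/BRCA1rev (breast), UWB1.289 BRCA1-null and BRCA1-restored (ovarian), HR-deficient C4-2B/MR (Rad51 mutant) and HR-proficient PC3 (prostate).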

ATR = molecular target: T2, ATR (Homo sapiens, UniProt Q13535); experiment: ATR-mediated signaling: phosphorylation of Rad17 Ser 645 and CHK1 Ser 345 in cells; conditions: for ATR inhibition potency relative to JC099 (OLA- or UV-induced phosphorylation of Rad17 and CHK1): compared to JC099; for Olaparib induced phosphorylation of Rad17 at Ser 645 and CHK1 at Ser 345: PC3 cells
T2 construct: endogenous in cells; host or cells: PC3, C4-2B/MR, SUM149PT-BRCA1rev, UWB1.289+BRCA1, MDA-MB-231
T2 sequence (Q13535 whole entry): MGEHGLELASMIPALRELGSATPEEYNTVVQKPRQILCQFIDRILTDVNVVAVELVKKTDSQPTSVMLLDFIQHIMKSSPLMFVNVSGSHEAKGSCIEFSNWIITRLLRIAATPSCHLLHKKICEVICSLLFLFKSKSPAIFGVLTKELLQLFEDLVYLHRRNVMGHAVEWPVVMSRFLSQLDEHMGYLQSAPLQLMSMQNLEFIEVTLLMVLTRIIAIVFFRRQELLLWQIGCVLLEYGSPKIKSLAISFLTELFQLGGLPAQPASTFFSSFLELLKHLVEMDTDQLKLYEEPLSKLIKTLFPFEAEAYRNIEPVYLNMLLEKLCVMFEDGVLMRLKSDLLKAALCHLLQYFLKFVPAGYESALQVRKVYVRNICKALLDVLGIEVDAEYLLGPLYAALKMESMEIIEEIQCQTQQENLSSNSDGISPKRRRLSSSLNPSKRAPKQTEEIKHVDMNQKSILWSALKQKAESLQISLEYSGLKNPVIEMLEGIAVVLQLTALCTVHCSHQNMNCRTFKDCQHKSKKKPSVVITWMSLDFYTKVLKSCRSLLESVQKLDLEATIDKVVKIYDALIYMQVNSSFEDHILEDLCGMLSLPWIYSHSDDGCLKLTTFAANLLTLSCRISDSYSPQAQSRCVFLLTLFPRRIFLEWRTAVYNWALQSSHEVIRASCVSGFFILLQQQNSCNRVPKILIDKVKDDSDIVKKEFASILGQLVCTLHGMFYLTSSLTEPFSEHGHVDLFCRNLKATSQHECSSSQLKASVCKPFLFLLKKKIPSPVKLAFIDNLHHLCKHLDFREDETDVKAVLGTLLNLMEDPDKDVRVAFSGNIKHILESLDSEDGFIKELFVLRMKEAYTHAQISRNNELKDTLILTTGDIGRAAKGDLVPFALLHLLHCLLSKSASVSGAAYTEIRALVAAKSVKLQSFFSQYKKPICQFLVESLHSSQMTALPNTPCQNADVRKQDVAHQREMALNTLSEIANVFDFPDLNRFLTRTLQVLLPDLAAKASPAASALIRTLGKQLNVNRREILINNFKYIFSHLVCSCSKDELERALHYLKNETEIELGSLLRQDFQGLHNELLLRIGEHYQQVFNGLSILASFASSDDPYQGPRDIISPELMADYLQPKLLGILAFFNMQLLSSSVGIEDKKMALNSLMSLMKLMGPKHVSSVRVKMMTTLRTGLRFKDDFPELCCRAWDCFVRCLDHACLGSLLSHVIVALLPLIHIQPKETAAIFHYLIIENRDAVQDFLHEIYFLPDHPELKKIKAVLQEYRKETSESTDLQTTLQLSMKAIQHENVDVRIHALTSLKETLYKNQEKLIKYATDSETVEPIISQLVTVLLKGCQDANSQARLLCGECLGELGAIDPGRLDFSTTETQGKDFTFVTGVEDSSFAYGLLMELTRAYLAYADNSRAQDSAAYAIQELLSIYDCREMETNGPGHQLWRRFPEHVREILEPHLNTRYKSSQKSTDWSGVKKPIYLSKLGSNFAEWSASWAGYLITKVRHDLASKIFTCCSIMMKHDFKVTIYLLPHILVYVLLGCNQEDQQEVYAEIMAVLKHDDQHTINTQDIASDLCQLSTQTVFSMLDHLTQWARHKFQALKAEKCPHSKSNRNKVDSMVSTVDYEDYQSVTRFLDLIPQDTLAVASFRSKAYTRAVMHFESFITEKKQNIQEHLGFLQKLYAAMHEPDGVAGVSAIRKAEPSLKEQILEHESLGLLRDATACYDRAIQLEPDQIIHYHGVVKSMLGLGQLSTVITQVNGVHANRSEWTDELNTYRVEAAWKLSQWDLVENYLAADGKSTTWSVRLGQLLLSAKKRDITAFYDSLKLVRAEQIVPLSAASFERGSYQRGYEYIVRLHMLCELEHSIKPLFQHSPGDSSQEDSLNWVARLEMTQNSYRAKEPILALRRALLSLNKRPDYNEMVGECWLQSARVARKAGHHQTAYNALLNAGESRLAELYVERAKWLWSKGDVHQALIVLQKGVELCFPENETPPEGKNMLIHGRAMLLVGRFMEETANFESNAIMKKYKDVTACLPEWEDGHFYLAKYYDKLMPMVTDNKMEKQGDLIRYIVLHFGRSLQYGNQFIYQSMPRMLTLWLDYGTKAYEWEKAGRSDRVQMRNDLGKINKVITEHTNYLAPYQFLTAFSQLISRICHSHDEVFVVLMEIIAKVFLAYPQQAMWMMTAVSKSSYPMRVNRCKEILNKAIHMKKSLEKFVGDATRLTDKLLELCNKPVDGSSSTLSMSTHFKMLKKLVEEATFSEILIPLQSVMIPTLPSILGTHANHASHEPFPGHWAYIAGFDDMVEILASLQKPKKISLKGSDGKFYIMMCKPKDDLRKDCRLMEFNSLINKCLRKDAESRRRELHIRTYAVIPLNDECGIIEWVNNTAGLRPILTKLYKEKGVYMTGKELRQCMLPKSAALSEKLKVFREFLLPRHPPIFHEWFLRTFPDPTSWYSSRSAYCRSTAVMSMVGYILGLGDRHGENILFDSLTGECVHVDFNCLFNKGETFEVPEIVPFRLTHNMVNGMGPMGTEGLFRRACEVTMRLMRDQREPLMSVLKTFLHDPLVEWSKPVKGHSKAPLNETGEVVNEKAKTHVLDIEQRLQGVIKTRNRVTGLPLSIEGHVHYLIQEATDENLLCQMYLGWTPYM
T2 sequence (Q8WXE1 whole entry partner): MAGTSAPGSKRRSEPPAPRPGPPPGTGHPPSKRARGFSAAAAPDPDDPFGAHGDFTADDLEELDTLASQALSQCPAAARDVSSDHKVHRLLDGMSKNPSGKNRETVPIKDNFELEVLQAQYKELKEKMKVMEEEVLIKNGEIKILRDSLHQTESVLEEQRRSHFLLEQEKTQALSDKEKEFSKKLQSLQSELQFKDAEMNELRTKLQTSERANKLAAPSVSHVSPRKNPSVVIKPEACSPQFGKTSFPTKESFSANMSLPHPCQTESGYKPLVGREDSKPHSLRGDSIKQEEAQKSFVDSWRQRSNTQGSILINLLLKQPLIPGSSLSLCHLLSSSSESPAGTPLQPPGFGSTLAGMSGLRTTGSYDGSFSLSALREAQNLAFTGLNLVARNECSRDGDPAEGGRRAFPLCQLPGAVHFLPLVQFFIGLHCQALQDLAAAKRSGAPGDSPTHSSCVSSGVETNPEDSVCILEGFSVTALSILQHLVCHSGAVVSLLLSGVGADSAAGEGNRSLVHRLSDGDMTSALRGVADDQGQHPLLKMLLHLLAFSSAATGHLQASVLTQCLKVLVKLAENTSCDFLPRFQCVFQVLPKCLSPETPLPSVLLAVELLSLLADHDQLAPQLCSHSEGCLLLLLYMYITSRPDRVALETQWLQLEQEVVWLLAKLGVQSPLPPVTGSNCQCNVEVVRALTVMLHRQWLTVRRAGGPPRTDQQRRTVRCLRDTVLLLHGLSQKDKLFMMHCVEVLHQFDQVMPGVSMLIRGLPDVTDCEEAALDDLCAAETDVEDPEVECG
Method: PARP inhibitor-resistant cells are increasingly dependent on ATR for survival, and ATR inhibition disrupts restored HR and fork protection pathways in PARP inhibitor resistant BRCA-deficient cancer cells. For ATR kinase in vitro assays, ATR was immunoprecipitated with 3 μg of anti-ATR antibody (Bethyl Laboratories, A300-137A) from 1 mg of cell lysate. […] The IC50 was determined by the enzyme profiling service of Eurofins Cerep (France). […] The phosphorylation of CHK1 at Ser 345 sites was used as a bio-marker of ATR-mediated signaling pathway. The phosphorylation of Rad17 at Ser 645, which is a substrate of ATR, was also examined.
ATR inhibition was assessed in C4-2B/MR cells. Considering ATM is a homologous protein of ATR, we also detected the effect of JC046 analogs on the phosphorylation of KAP1 at Ser 824 and CHK2 at Thr 68 sites, which were used as markers of ATM signaling pathway.

[2] = 0.5 μM and 2 μM, PC3 and C4-2B/MR cells
[3] = 1 μM and 2 μM, PC3 and SUM149PT-BRCA1rev cells

| SMILES | PARP1-trapping potency relative to JC099 (PARP1 in the chromatin-bound fraction) (PARP1; PC3 cells) | ATR inhibition potency relative to JC099 (OLA- or UV-induced phosphorylation of Rad17 and CHK1) (ATR) | PARP1 trapped on DNA lesions (PARP1; 0.3 μM, PC3 cells) | also measured |
| --- | --- | --- | --- | --- |
| CCCN(CCC)CCOc1ccc(C(=O)NC2C/C(=C\c3ccc(F)c(F)c3)C(=O)/C(=C/c3ccc(F)c(F)c3)C2)cc1 (stereo not drawn) [JCSO11] | – | – | – | cell killing potency relative to JC099 [1]: higher cell killing potency than JC099 |
| CN1CCC[C@H]1CNc1ncc(C(=O)NC2C/C(=C\c3ccc(F)c(F)c3)C(=O)/C(=C/c3ccc(F)c(F)c3)C2)cn1 (stereo partly drawn) [JCS161, N-(3,5-Bis((E)-3,4-difluorobenzylidene)-4-oxocyclohexyl)-2-((((S)-1-methylpyrrolidin-2-yl)methyl)-amino)pyrimidine-5-carboxamide] | – | – | – | cell killing potency relative to JC099 [1]: higher cell killing potency than JC099 |
| O=C1/C(=C/c2ccc(F)c(F)c2)CC(NC(=O)c2ccc(OCCN3CC4(COC4)C3)cc2)C/C1=C\c1ccc(F)c(F)c1 (stereo not drawn) [JCS151, 4-(2-(2-Oxa-6-azaspiro[3.3]heptan-6-yl)ethoxy)-N-(3,5-bis((E)-3,4-difluorobenzylidene)-4-oxocyclohexyl)benzamide] | their potencies were less than JC099 | their potencies were close to JC099 | – | – |
| CN(C)CCCN(CCCN(C)C)C(=O)Nc1ccc(C(=O)NC2C/C(=C\c3ccc(F)c(F)c3)C(=O)/C(=C/c3ccc(F)c(F)c3)C2)cc1 (stereo not drawn) [JCS058, N-(3,5-bis((E)-3,4-difluorobenzylidene)-4-oxocyclohexyl)-4-(3,3-bis(3-(dimethylamino)propyl)ureido)benzamide] | – | – | trapped | Olaparib induced phosphorylation of Rad17 at Ser 645 and CHK1 at Ser 345 (ATR; 1 μM and 2 μM): inhibited |
| CCN(CCOC)CCOc1ccc(C(=O)NC2C/C(=C\c3ccc(F)c(F)c3)C(=O)/C(=C/c3ccc(F)c(F)c3)C2)cc1 (stereo not drawn) [JCS109, N-(3,5-Bis((E)-3,4-difluorobenzylidene)-4-oxocyclohexyl)-4-(2-(ethyl(2-methoxyethyl)amino)eth-oxy)benzamide] | higher potency in PARP1-trapping | greater ATR inhibition potential | – | – |
| O=C1/C(=C/c2ccc(F)c(F)c2)CC(NC(=O)c2cnc(NCCN3CCCC3)cc2C(F)(F)F)C/C1=C\c1ccc(F)c(F)c1 (stereo not drawn) [JCS094, N-(3,5-Bis((E)-3,4-difluorobenzylidene)-4-oxocyclohexyl)-6-((2-(pyrrolidin-1-yl)ethyl)amino)-4-(trifluoromethyl)nicotinamide] | higher potency in PARP1-trapping | their potencies were close to JC099 | – | – |
| CCN(CC)CCOc1ccc(C(=O)NC2C/C(=C\c3ccc(F)cc3)C(=O)/C(=C/c3ccc(F)cc3)C2)cc1 (stereo not drawn) [JCS149, N-(3,5-Bis((E)-4-fluorobenzylidene)-4-oxocyclohexyl)-4-(2-(diethylamino)ethoxy)benzamide] | their potencies were less than JC099 | less ATR inhibition potencies | – | – |
| CCN(CC)CCOc1nncc2cc(C(=O)NC3C/C(=C\c4ccc(F)c(F)c4)C(=O)/C(=C/c4ccc(F)c(F)c4)C3)ccc12 (stereo not drawn) [JCS133, N-(3,5-Bis((E)-3,4-difluorobenzylidene)-4-oxocyclohexyl)-1-(2-(diethylamino)ethoxy)phthalazine-6-carboxamide] | higher potency in PARP1-trapping | their potencies were close to JC099 | – | – |
| CCN(CC)C(=O)c1ccc(C(=O)NC2C/C(=C\c3ccc(F)c(F)c3)C(=O)/C(=C/c3ccc(F)c(F)c3)C2)c2nn(C)cc12 (stereo not drawn) [JCS003, N^7-(3,5-bis((E)-3,4-difluorobenzylidene)-4-oxocyclohexyl)-N^4,N^4-diethyl-2-methyl-2H-indazole-4,7-dicarboxamide] | – | – | – | PARP1 trapped on DNA lesions (PARP1; 0.5 μM, PC3 and C4-2B/MR cells): trapped; Olaparib induced phosphorylation of CHK1 at Ser 345 (ATR; 0.5 μM, 1 μM, 2 μM, PC3 and SUM149PT-BRCA1rev cells): inhibited; Olaparib induced phosphorylation of Rad17 at Ser 645 and CHK1 at Ser 345 (ATR; 2 μM): inhibited |
| CCN(CC)C(=O)c1ccc(C2C/C(=C\c3ccc(F)c(F)c3)C(=O)/C(=C/c3ccc(F)c(F)c3)C2)c2nn(C)cc12 (stereo not drawn) [JCS004, 7-(3,5-bis((E)-3,4-difluorobenzylidene)-4-oxocyclohexyl)-N,N-diethyl-2-methyl-2H-indazole-4-carboxamide] | – | – | – | PARP1 trapped on DNA lesions (PARP1; [2]): trapped; UV induced phosphorylation of CHK1 at Ser 345 (ATR; [3]): inhibited |
| O=C1/C(=C/c2cc(Cl)cc(Cl)c2)CC(NC(=O)c2ccc(OCCN3CCCCC3)cc2)C/C1=C\c1cc(Cl)cc(Cl)c1 (stereo not drawn) [JCS061, N-(3,5-Bis((E)-3,5-dichlorobenzylidene)-4-oxocyclohexyl)-4-(2-(piperidin-1-yl)ethoxy)benzamide] | – | – | trapped | Olaparib induced phosphorylation of Rad17 at Ser 645 and CHK1 at Ser 345 (ATR; 1 μM and 2 μM): inhibited |
| CN1CCN(CC(=O)Nc2ccc(C(=O)NC3C/C(=C\c4ccc(F)c(F)c4)C(=O)/C(=C/c4ccc(F)c(F)c4)C3)cc2)CC1 (stereo not drawn) [JCS050, N-(3,5-bis((E)-3,4-difluorobenzylidene)-4-oxocyclohexyl)-4-(2-(4-methylpiperazin-1-yl)acetamido)benzamide] | higher potency in PARP1-trapping | greater ATR inhibition potential | trapped | – |
| CCN(CC)C(=O)Nc1ccc(C(=O)NC2C/C(=C\c3ccc(F)c(F)c3)C(=O)/C(=C/c3ccc(F)c(F)c3)C2)cc1 (stereo not drawn) [JCS059, N-(3,5-bis((E)-3,4-difluorobenzylidene)-4-oxocyclohexyl)-4-(3,3-diethylureido)benzamide] | – | – | trapped | Olaparib induced phosphorylation of Rad17 at Ser 645 and CHK1 at Ser 345 (ATR; 1 μM and 2 μM): inhibited |
| CCN(CC)C(=O)c1ccc(C2C/C(=C\c3ccc(F)c(F)c3)C(=O)/C(=C/c3ccc(F)c(F)c3)C2)c2[nH]ncc12 (stereo not drawn) [JCS005, 7-(3,5-bis((E)-3,4-difluorobenzylidene)-4-oxocyclohexyl)-N,N-diethyl-1H-indazole-4-carboxamide] | – | – | – | PARP1 trapped on DNA lesions (PARP1; [2]): trapped; UV induced phosphorylation of CHK1 at Ser 345 (ATR; [3]): inhibited |
| CN1CCC[C@H]1CNc1ccc(C(=O)NC2C/C(=C\c3ccc(F)c(F)c3)C(=O)/C(=C/c3ccc(F)c(F)c3)C2)cc1 (stereo partly drawn) [JCS160, N-(3,5-Bis((E)-3,4-difluorobenzylidene)-4-oxocyclohexyl)-4-((((S)-1-methylpyrrolidin-2-yl)methyl)-amino)benzamide] | their potencies were less than JC099 | greater ATR inhibition potential | – | – |
| CCCCN(CCCC)C(=O)Nc1ccc(C(=O)NC2C/C(=C\c3ccc(F)c(F)c3)C(=O)/C(=C/c3ccc(F)c(F)c3)C2)cc1 (stereo not drawn) [JCS060, N-(3,5-bis((E)-3,4-difluorobenzylidene)-4-oxocyclohexyl)-4-(3,3-dibutylureido)benzamide] | higher potency in PARP1-trapping | – | trapped | Olaparib induced phosphorylation of Rad17 at Ser 645 and CHK1 at Ser 345 (ATR; 1 μM and 2 μM): inhibited |
